Assay results published in patent publication US10874103B2, “Antibacterial composition comprising an acetal or a long-chain alkyl hexitane ether” (TEREOS STARCH & SWEETENERS BELGIUM, priority 2014, dated 2020).
Like-named read-outs stand apart in the source and are kept apart here.

How the values were obtained:
[1] = system: E. faecalis (ATCC® 29212™); assay: MIC, 96-well microplate microdilution (Example 4); type: cell-based; settings: Mueller-Hinton medium, 18 h at 37° C.
Protocol: (§1) The bacteriostatic properties of the derivatives are evaluated by measuring their minimum inhibitory concentration (MIC) on the bacteria tested. Such a measurement is made using the 96-well microplate microdilution method according to the conditions defined below.
(§2) The minimum inhibitory concentrations (MIC) are tested on Gram-positive bacterial strains according to the recommendations of the “Clinical Laboratory Standards Institute” (Clinical-Laboratory-Standards-Institute, 6th ed. Approved standard M100-S17. CLSI, Wayne, Pa., 2007).
(§3) The Gram-positive bacteria studied are as follows: L. monocytogenes (CIP 103575), E. faecalis (ATCC® 29212™) and S. aureus (ATCC® 292213™).
(§4) The cultures studied, freshly isolated (after incubation on a blood agar at 37° C. for 18 h), are taken up in sterile water (10 mL) until a 0.5 McFarland (Mc) suspension i.e. 1 to 2×10^8 CFU (bacteria)/cm^3 is obtained. The bacterial suspension was then diluted to obtain a final concentration of 5×10^5 CFU/cm^3.
(§5) Each well contains an identical quantity of Mueller-Hinton medium (a rich medium for bacterial culture) and bacteria with final 5×10^5 CFU/cm^3.
(§6) The test compounds of interest are solubilized in 2.5% m of ethanol before being diluted to different concentrations two by two.
(§7) On the multiwell plate, a first series has been planned comprising the culture medium without the test compound of interest. It corresponds to the growth control (control well). These controls serve as reference for comparing bacterial growth with that of the subsequent wells comprising different concentrations of the test compound of interest. The second series of wells comprises the mother solution for the test compound of interest for a concentration in the wells of 4 mM. Each series of wells was diluted two by two until the last series for a final concentration of 0.003 mM. Each concentration is duplicated in the same plate. The plate is incubated for 18 h at 37° C. […] If there is antibacterial activity, the bacterial growth is inhibited, which means that no turbidity or bacterial residue is present.
(§8) Tests have been conducted on Gram-positive bacteria with sorbitan derivatives. […] After sterilization the solutions are diluted in water. The results obtained for antimicrobial tests on the 3 bacterial strains L. monocytogenes (CIP 103575), E. faecalis (ATCC® 29212™) and S. aureus (ATCC® 292213™) are summarized in Table 1.

[2] = system: S. aureus (ATCC® 292213™); assay: MIC, 96-well microplate microdilution (Example 4); type: cell-based; settings: ATCC 292213; Mueller-Hinton medium, 18 h at 37° C.
Protocol: as §1, §2, §3, §4, §5, §6, §7, §8

[3] = system: L. monocytogenes (CIP 103575); assay: MIC, 96-well microplate microdilution (Example 4); type: cell-based; settings: Mueller-Hinton medium, 18 h at 37° C.
Protocol: as §1, §2, §3, §4, §5, §6, §7, §8

[4] = Critical micelle concentration (surfactant properties, Example 6); type: physicochemical
From the text: The physical, chemical and antimicrobial properties for the best products synthesized have been tested. These analyses show the different surfactant profiles, and the minimum inhibitory concentrations (MIC) for each compound on Gram-positive bacteria. The best surfactant and antimicrobial results are compared in Table 3.

Dodecyl-1,4-d-sorbitan [Example 2e]
Minimum inhibitory concentration (MIC) E. faecalis [1]: 120 µM
Minimum inhibitory concentration (MIC) S. aureus [2]: 120 µM
Minimum inhibitory concentration (MIC) L. monocytogenes [3]: 120 µM
CMC (critical micelle concentration) [4]: 0.091 mM
CMC (critical micelle concentration) ([4]; listed as Sorbitan dodecyl ether): 0.09 mM
